Measurements: the NIST ThermoML archive (doi:10.1021/je900596d)

Conditions: for mass density: Vibrating tube method

FC(F)=C(F)C(F)(F)F [hexafluoropropene]
Conditions	mass density [kg/m3]	vapor or sublimation pressure [kPa]
348.16 K, 3450.8 kPa, Liquid	1027.09	–
348.16 K, 3473.5 kPa, Liquid	1028.21	–
348.16 K, 3495.4 kPa, Liquid	1029.31	–
348.16 K, 3556 kPa, Liquid	1032.19	–
348.16 K, 3620.1 kPa, Liquid	1035.16	–
348.16 K, 3683.5 kPa, Liquid	1037.98	–
348.16 K, 3748.1 kPa, Liquid	1040.81	–
348.16 K, 3811.8 kPa, Liquid	1043.57	–
348.16 K, 3875.5 kPa, Liquid	1046.1	–
348.16 K, 4030.8 kPa, Liquid	1052.17	–
348.16 K, 4092 kPa, Liquid	1054.62	–
348.16 K, 4154 kPa, Liquid	1057.08	–
348.16 K, 4217.2 kPa, Liquid	1059.37	–
348.16 K, 4278.7 kPa, Liquid	1061.59	–
348.16 K, 4339.9 kPa, Liquid	1063.83	–
348.16 K, 4402.1 kPa, Liquid	1065.77	–
348.16 K, 4464.2 kPa, Liquid	1067.89	–
348.16 K, 4526 kPa, Liquid	1070.05	–
348.16 K, 4587.8 kPa, Liquid	1072.01	–
348.16 K, 4650.2 kPa, Liquid	1074.03	–
348.16 K, 4713.9 kPa, Liquid	1075.88	–
348.16 K, 4776 kPa, Liquid	1077.88	–
348.16 K, 4837.4 kPa, Liquid	1079.66	–
348.16 K, 4898.5 kPa, Liquid	1081.71	–
348.16 K, 4959.8 kPa, Liquid	1083.32	–
348.16 K, 5022.6 kPa, Liquid	1085.31	–
348.16 K, 5083.3 kPa, Liquid	1086.88	–
348.16 K, 5144.8 kPa, Liquid	1088.55	–
348.16 K, 5206 kPa, Liquid	1090.21	–
348.16 K, 5267.2 kPa, Liquid	1091.82	–
348.16 K, 5329.1 kPa, Liquid	1093.58	–
348.16 K, 5389.3 kPa, Liquid	1095.16	–
348.16 K, 5451.8 kPa, Liquid	1096.85	–
348.16 K, 5513.3 kPa, Liquid	1098.5	–
348.16 K, 5576.7 kPa, Liquid	1100.15	–
348.16 K, 5638.9 kPa, Liquid	1101.65	–
348.16 K, 5701.8 kPa, Liquid	1103.22	–
348.16 K, 5762.2 kPa, Liquid	1104.69	–
348.16 K, 5825.1 kPa, Liquid	1106.21	–
348.16 K, 5886.9 kPa, Liquid	1107.77	–
348.16 K, 5948.2 kPa, Liquid	1109.1	–
348.16 K, 6012.5 kPa, Liquid	1110.68	–
348.16 K, 6074.1 kPa, Liquid	1112.14	–
348.16 K, 6135.8 kPa, Liquid	1113.56	–
348.16 K, 6199.8 kPa, Liquid	1114.99	–
348.16 K, 6262.2 kPa, Liquid	1116.4	–
348.16 K, 6326.8 kPa, Liquid	1117.78	–
348.16 K, 6392.4 kPa, Liquid	1119.12	–
348.16 K, 6456 kPa, Liquid	1120.57	–
348.16 K, 6517.7 kPa, Liquid	1121.84	–
348.16 K, 6581 kPa, Liquid	1123.2	–
348.16 K, 6643.4 kPa, Liquid	1124.53	–
348.16 K, 6706.3 kPa, Liquid	1125.82	–
348.16 K, 6767.7 kPa, Liquid	1127.07	–
348.16 K, 6830.9 kPa, Liquid	1128.32	–
348.16 K, 6893 kPa, Liquid	1129.63	–
348.16 K, 6955.9 kPa, Liquid	1130.87	–
348.16 K, 7017.5 kPa, Liquid	1132.05	–
348.16 K, 7142.8 kPa, Liquid	1134.61	–
348.16 K, 7205.4 kPa, Liquid	1135.79	–
348.16 K, 7269.5 kPa, Liquid	1136.95	–
348.16 K, 7332.4 kPa, Liquid	1138.09	–
348.16 K, 7396.2 kPa, Liquid	1139.31	–
348.16 K, 7458.5 kPa, Liquid	1140.53	–
348.16 K, 7521.9 kPa, Liquid	1141.64	–
348.16 K, 7584.8 kPa, Liquid	1142.73	–
348.16 K, 7646.8 kPa, Liquid	1143.93	–
348.16 K, 7707.9 kPa, Liquid	1145.12	–
348.16 K, 7771.4 kPa, Liquid	1146.25	–
348.16 K, 7835.4 kPa, Liquid	1147.35	–
348.16 K, 7897.7 kPa, Liquid	1148.36	–
348.16 K, 7961.9 kPa, Liquid	1149.49	–
348.16 K, 8025.7 kPa, Liquid	1150.51	–
348.16 K, 8087.3 kPa, Liquid	1151.69	–
348.16 K, 8149.7 kPa, Liquid	1152.67	–
348.16 K, 8214.5 kPa, Liquid	1153.77	–
348.16 K, 8278.5 kPa, Liquid	1154.85	–
348.16 K, 8341.3 kPa, Liquid	1155.78	–
348.16 K, 8406.3 kPa, Liquid	1157	–
348.16 K, 8469.9 kPa, Liquid	1157.97	–
348.16 K, 8531.4 kPa, Liquid	1158.94	–
348.16 K, 8594.4 kPa, Liquid	1159.97	–
348.16 K, 8659.7 kPa, Liquid	1160.84	–
348.16 K, 8722.7 kPa, Liquid	1161.97	–
348.16 K, 8786.5 kPa, Liquid	1163	–
348.16 K, 8848.4 kPa, Liquid	1163.83	–
348.16 K, 8911.7 kPa, Liquid	1164.85	–
348.16 K, 8974.2 kPa, Liquid	1165.76	–
348.16 K, 9039.8 kPa, Liquid	1166.77	–
348.16 K, 9105.6 kPa, Liquid	1167.83	–
348.16 K, 9170.3 kPa, Liquid	1168.8	–
348.16 K, 9233.7 kPa, Liquid	1169.7	–
348.16 K, 9295.2 kPa, Liquid	1170.74	–
348.16 K, 9362.9 kPa, Liquid	1171.78	–
348.16 K, 9399.4 kPa, Liquid	1172.31	–
348.16 K, 9466.9 kPa, Liquid	1173.32	–
348.16 K, 9534.3 kPa, Liquid	1174.34	–
348.16 K, 9571.4 kPa, Liquid	1174.89	–
348.16 K, 9609.6 kPa, Liquid	1175.39	–
348.16 K, 9656.8 kPa, Liquid	1176.01	–
348.16 K, 9696 kPa, Liquid	1176.45	–
348.16 K, 9739.9 kPa, Liquid	1177.06	–
348.16 K, 9788.9 kPa, Liquid	1175.42	–
348.16 K, 9833.1 kPa, Liquid	1175.9	–
348.16 K, 9877.8 kPa, Liquid	1176.32	–
348.16 K, 9944.3 kPa, Liquid	1179.73	–
348.16 K, 10016 kPa, Liquid	1180.6	–
348.22 K, Liquid, Closed cell (Static) method	–	2500.5
353.12 K, 6.6 kPa, Fluid (supercritical or subcritical phases)	0.343	–
353.12 K, 8.7 kPa, Fluid (supercritical or subcritical phases)	0.497	–
353.12 K, 11.7 kPa, Fluid (supercritical or subcritical phases)	0.619	–
353.12 K, 14.3 kPa, Fluid (supercritical or subcritical phases)	0.737	–
353.12 K, 16.6 kPa, Fluid (supercritical or subcritical phases)	0.793	–
353.12 K, 24.1 kPa, Fluid (supercritical or subcritical phases)	1.232	–
353.12 K, 26.7 kPa, Fluid (supercritical or subcritical phases)	1.395	–
353.12 K, 28.8 kPa, Fluid (supercritical or subcritical phases)	1.442	–
353.12 K, 32.7 kPa, Fluid (supercritical or subcritical phases)	1.694	–
353.12 K, 35.6 kPa, Fluid (supercritical or subcritical phases)	1.827	–
353.12 K, 38.2 kPa, Fluid (supercritical or subcritical phases)	1.904	–
353.12 K, 101.9 kPa, Fluid (supercritical or subcritical phases)	5.291	–
353.12 K, 111.4 kPa, Fluid (supercritical or subcritical phases)	5.735	–
353.12 K, 120.9 kPa, Fluid (supercritical or subcritical phases)	6.245	–
353.12 K, 129.7 kPa, Fluid (supercritical or subcritical phases)	6.695	–
353.12 K, 140.7 kPa, Fluid (supercritical or subcritical phases)	7.318	–
353.12 K, 151.2 kPa, Fluid (supercritical or subcritical phases)	7.845	–
353.12 K, 160.5 kPa, Fluid (supercritical or subcritical phases)	8.339	–
353.12 K, 169.9 kPa, Fluid (supercritical or subcritical phases)	8.914	–
353.12 K, 180.3 kPa, Fluid (supercritical or subcritical phases)	9.389	–
353.12 K, 189.6 kPa, Fluid (supercritical or subcritical phases)	9.904	–
353.12 K, 199 kPa, Fluid (supercritical or subcritical phases)	10.374	–
353.12 K, 209.3 kPa, Fluid (supercritical or subcritical phases)	11.01	–
353.12 K, 220.4 kPa, Fluid (supercritical or subcritical phases)	11.538	–
353.12 K, 230.8 kPa, Fluid (supercritical or subcritical phases)	12.133	–
353.12 K, 242.1 kPa, Fluid (supercritical or subcritical phases)	12.723	–
